Reference: the supplement of paper PMC10307832

Experiments:
Assay in all cases: relative viability (nuclei count vs DMSO), 5 days (fraction); higher = more cells survive
[1] = compound: COc1cc(Nc2ncc3c(n2)-c2ccc(Cl)cc2C(c2c(F)cccc2OC)=NC3)ccc1C(=O)O [Alisertib] + O=C(CCCCCCC(=O)Nc1ccccc1)NO [Vorinostat] (partner 1 µM)
In short: (§1)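 The day after seeding in 1536-well plates, lung cancer cell lines were treated by pin tool with a single drug, or with a fixed anchor-drug dose together with five library-drug doses (not always all listed) in √10 steps. After 5 days, a combined fix-and-stain solution (final 0.05% Triton X-100, 1% formaldehyde, 1 ug/ml Hoechst) was added. Nuclei counted on 4× images gave relative viability as treated counts over vehicle counts, reported as the median of duplicate plates.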

[2] = compound: COc1cc(Nc2ncc3c(n2)-c2ccc(Cl)cc2C(c2c(F)cccc2OC)=NC3)ccc1C(=O)O [Alisertib] + C[C@]1(O)C[C@@H](c2nc(-c3ccc4ccc(-c5ccccc5)nc4c3)c3c(N)nccn32)C1 [Linsitinib] (partner 1 µM)
In short: as §1

[3] = compound: COc1cc(Nc2ncc3c(n2)-c2ccc(Cl)cc2C(c2c(F)cccc2OC)=NC3)ccc1C(=O)O [Alisertib] + Nc1nc2[nH]cc(CCc3ccc(C(=O)N[C@@H](CCC(=O)O)C(=O)O)cc3)c2c(=O)[nH]1 [Pemetrexed] (partner 0.2 µM)
In short: as §1

[4] = compound: COc1cc(Nc2ncc3c(n2)-c2ccc(Cl)cc2C(c2c(F)cccc2OC)=NC3)ccc1C(=O)O [Alisertib] + CC1(C)CCC(c2ccc(Cl)cc2)=C(CN2CCN(c3ccc(C(=O)NS(=O)(=O)c4ccc(N[C@H](CCN5CCOCC5)CSc5ccccc5)c(S(=O)(=O)C(F)(F)F)c4)cc3)CC2)C1 [Navitoclax] (partner 0.5 µM)
In short: as §1

Cell Line	relative viability ([1]; first compound 0.005 µM)	relative viability ([1]; first compound 0.01581 µM)	relative viability ([1]; first compound 0.05 µM)	relative viability ([1]; first compound 0.1581 µM)	relative viability ([1]; first compound 0.5 µM)	relative viability ([2]; first compound 0.005 µM)	relative viability ([2]; first compound 0.01581 µM)	relative viability ([2]; first compound 0.05 µM)	relative viability ([2]; first compound 0.1581 µM)	relative viability ([2]; first compound 0.5 µM)	relative viability ([3]; first compound 0.005 µM)	relative viability ([3]; first compound 0.01581 µM)	relative viability ([3]; first compound 0.05 µM)	relative viability ([3]; first compound 0.1581 µM)	relative viability ([3]; first compound 0.5 µM)	relative viability ([4]; first compound 0.005 µM)	relative viability ([4]; first compound 0.01581 µM)	relative viability ([4]; first compound 0.05 µM)	relative viability ([4]; first compound 0.1581 µM)	relative viability ([4]; first compound 0.5 µM)
NCI-H1666	1.01	0.995	0.846	0.617	0.555	0.815	0.812	0.41	0.317	0.253	0.829	0.844	0.791	0.672	0.537	0.94	0.779	0.435	0.281	0.291
NCI-H1734	0.604	0.519	0.302	0.221	0.189	0.869	0.86	0.469	0.334	0.213	0.42	0.427	0.405	0.286	0.203	0.851	0.782	0.366	0.164	0.0931
NCI-H1755	0.768	0.776	0.433	0.386	0.329	1	0.947	0.62	0.5	0.271	0.443	0.399	0.386	0.321	0.34	0.928	0.99	0.682	0.356	0.181
NCI-H1793	0.465	0.41	0.267	0.191	0.221	0.811	0.923	0.373	0.276	0.197	0.551	0.339	0.356	0.232	0.209	0.428	0.339	0.247	0.17	0.148
NCI-H1915	0.496	0.473	0.374	0.206	0.161	0.984	0.948	0.504	0.354	0.224	0.432	0.382	0.325	0.262	0.219	0.686	0.577	0.275	0.235	0.13
NCI-H1944	0.573	0.52	0.339	0.183	0.188	1.23	1.33	0.971	0.508	0.265	0.579	0.662	0.564	0.246	0.18	1.06	1.01	0.969	0.415	0.194
NCI-H1975	0.657	0.688	0.284	0.214	0.201	0.917	0.861	0.484	0.331	0.188	0.289	0.265	0.235	0.214	0.185	1.14	1.01	0.503	0.344	0.175
NCI-H1993	0.63	0.436	0.395	0.372	0.339	0.685	0.659	0.606	0.613	0.578	0.614	0.631	0.506	0.539	0.422	1.12	1.04	0.463	0.499	0.542
NCI-H2009	0.684	0.699	0.234	0.204	0.134	1.24	1.14	0.672	0.427	0.213	0.959	0.987	0.724	0.475	0.168	1.08	1.11	0.349	0.302	0.105
NCI-H2023	0.565	0.31	0.215	0.12	0.0981	0.653	0.505	0.355	0.285	0.108	0.192	0.222	0.177	0.152	0.101	0.955	0.885	0.656	0.282	0.132
NCI-H2085	0.73	0.771	0.431	0.441	0.448	0.876	0.85	0.516	0.389	0.281	0.638	0.896	0.837	0.27	0.294	1.15	1.03	0.401	0.278	0.247
NCI-H2087	0.758	0.667	0.173	0.106	0.133	0.866	0.669	0.276	0.236	0.228	0.641	0.632	0.423	0.163	0.144	0.868	0.742	0.164	0.153	0.153
NCI-H2126	0.682	0.802	0.366	0.207	0.198	0.709	0.752	0.467	0.342	0.256	0.639	0.641	0.602	0.316	0.276	0.819	0.874	0.574	0.276	0.266
NCI-H2228	0.544	0.671	0.373	0.0949	0.104	0.55	0.936	0.317	0.12	0.095	0.344	0.336	0.26	0.121	0.0987	0.829	0.672	0.564	0.0729	0.0587
NCI-H2347	0.522	0.569	0.518	0.407	0.343	0.967	0.954	0.812	0.729	0.478	0.424	0.423	0.416	0.409	0.349	0.742	0.695	0.459	0.42	0.329
NCI-H2405	0.913	0.898	0.799	0.288	0.213	0.922	0.814	0.818	0.384	0.266	1.01	1.03	0.871	0.308	0.295	0.873	0.778	0.574	0.198	0.135
NCI-H3122	0.891	0.79	0.799	0.282	0.186	1.02	0.905	0.571	0.467	0.245	0.184	0.189	0.194	0.186	0.143	1.04	0.992	0.664	0.592	0.237
PC-3 [JPC-3]	0.596	0.68	0.769	0.367	0.354	0.967	0.908	0.864	0.559	0.447	1.06	0.988	0.885	0.388	0.287	0.757	0.79	0.401	0.306	0.281
PC-14	0.627	0.63	0.367	0.0643	0.0761	0.91	0.848	0.774	0.222	0.117	0.103	0.138	0.146	0.0731	0.052	0.924	0.881	0.663	0.362	0.0849
RERF-LC-KJ	0.626	0.507	0.391	0.252	0.213	0.92	0.789	0.581	0.207	0.227	0.441	0.466	0.415	0.273	0.216	1.06	0.838	0.415	0.178	0.284
SK-LU-1	0.749	0.427	0.287	0.251	0.246	1.07	0.924	0.361	0.324	0.24	0.972	0.722	0.405	0.333	0.267	0.841	0.736	0.101	0.139	0.112
SK-MES-1	0.954	0.976	0.365	0.206	0.216	0.953	0.963	0.725	0.279	0.16	0.904	0.787	0.661	0.442	0.191	1.09	0.892	0.315	0.139	0.0931
SW 1573	0.803	0.288	0.239	0.233	0.109	0.856	0.824	0.649	0.176	0.143	0.781	0.767	0.269	0.21	0.114	0.954	0.737	0.219	0.0904	0.0636
UMC-11	0.262	0.169	0.113	0.118	0.161	0.755	0.495	0.168	0.148	0.158	0.602	0.26	0.196	0.18	0.175	0.241	0.163	0.121	0.115	0.125
